In a melting point compilation (Tetko et al.; mined from patent text by program, amines drawn as free bases though some values may be those of a salt):

| melting point [°C] | Structure (SMILES) |
| --- | --- |
| 184 | CCOC(=O)c1cc(O[C@@H]2c3c(C)ccc(C)c3C[C@H]2O)c2nc(C)n(C)c2c1 (relative stereo) |
| 137 | COC(=O)C=Cc1ccc(NC(C)=O)c(OC)c1 |
| 125 to 126 | CC(C)(C(=O)C(Oc1ccc(Cl)cc1Cl)n1ccnc1)C(Cl)Cl (stereo not given) |
| 77 to 80 | CCCc1c(OCC#CCCCC(=O)NCCCCc2cccnc2)ccc(C(C)=O)c1O |
| 256 | Cc1nc(-c2ccc(C(=O)N[C@H]3CC[C@H](CCN4CCC(c5cccc6c5CCO6)CC4)CC3)cc2)no1 |
| 110 to 112 | O=C(NCC1CCN(C[C@H]2COc3ccc(Cl)cc3O2)CC1)c1ccccn1 |
| 198 to 200 | Cc1ccc(O)cc1C(CCC(=O)O)Oc1cc(OCc2cccnc2)ccc1C#N (racemic) |
| 160 to 162 | CCC12C=C(C(=O)OC)n3c4c(c5ccccc53)CCN(CCC1)C42 (stereo not given) |
| 94 to 97 | OCCCCCCOc1ccc(OCc2ccccc2)cc1 |
| 200 | Nc1cc([N+](=O)[O-])ccc1OCC(O)CN1C(=O)CCC1=O (stereo not given) |
| 183 to 185 | CCOCCc1c(-c2ccc(Cl)cc2)nc(N)n2ncnc12 |
| 240 to 245 | CCOC(=O)c1cnc2cc(C)sc2c1O |
| 171 to 173 | O=C(O)Cc1ccc2c(c1)C(=O)Cc1ccccc1C2 |
| 78 to 81 | CCOC(=O)C1=NOC(c2ccccc2)(c2ccccc2)C1 |
| 250 to 251 | COc1ccc(C(=O)C2=C(O)C(=O)N(c3ccc(C)nn3)C2c2ccc(OC(F)(F)F)cc2)cn1 (stereo not given) |
| 201 to 203 | O=C(CCl)NCc1cc2c(c(Br)c1O)CCCC2=O |
| 49 to 50 | COc1ccc2c(c1)C=C(C=O)CO2 |

| melting point [°C] | Structure (SMILES) |
| --- | --- |
| 181 to 182 | CC(C)(C)OC(=O)NNC(=O)c1cc(OCc2ccccc2)c(OCc2ccccc2)c(CSc2ccncc2)n1 |
| 132 to 133 | O=C(O)CN1CCN(Cc2ccccc2)C1=O |
| 80 to 81 | C=C(C)N(c1c(C)cccc1C)S(C)(=O)=O |
| 154 to 157 | CSc1ccc(/C=C2/C(C)=C(CCCCN(O)C(N)=O)c3cc(F)ccc32)cc1 |
| 194 to 197 | CC(C)CN1C(=O)[C@@H](CC(=O)O)O[C@H](c2ccccc2OCc2ccccc2)c2cc(Cl)ccc21 (relative stereo) |
| 73 to 74 | NC(=O)C1=C(NCc2ccccc2)CCCC1 |
| 233 to 235 | O=C(O)CN(CF)C(=O)c1ccccc1 |
| 45 to 50 | NCC(=O)OCc1ccc([N+](=O)[O-])cc1 |
| 81 to 82 | CC(C)(Oc1ccc(Cl)cc1)C(=O)NCCO[N+](=O)[O-] |
| 165 to 166 | CCc1cccc(C)c1CNc1cc(OC)nc2c1nc(C)n2C |
| 115 to 117 | CCCCCCOc1ccc(Nc2ncc(F)c(Nc3ccc4c(c3)OCCO4)n2)cc1 |
| 210 to 214 | CC1CC(=O)NN=C1c1ccc(NN=C(C#N)C#N)cc1 (single isomer, unassigned; (+)) |
| 138 to 142 | CC(Cc1c[nH]c2ccccc12)(NC(=O)OC1C2CC3CC(C2)CC1C3)C(=O)NCC(=NOCC(=O)O)c1ccccc1 (stereo not given) |
| 98 | CCNC(=O)C(C)(C)N=NC(C)(C)C(=O)NCC |
| < 50 | CCSN(C)C(=O)Nc1ccc(Br)cc1 |
| 168 to 170 | O=C(CCc1ccccc1)Nc1cc(-c2ccccc2)[nH]n1 |

Further lines, the compound ahead of its results:

| Structure (SMILES) | melting point [°C] |
| --- | --- |
| Cc1oc(-c2ccccc2)nc1COc1cccc(COc2cncc(CO)c2)c1 | 145 to 146 |
| Cn1c(=O)c2conc2n(-c2ccccc2)c1=O | 219 to 221 |
| CC(C)(C)OC(=O)[C@H]1N=CSC[C@]1(O)C(F)(F)F | 126 to 128 |
| CCCCCC(NC(C)C)=C1C(=O)ON=C1C | 99 to 101 |
| COc1cccc2c1C(=O)c1c(O)c3c(c(O)c1C2=O)CC(O)(C(C)=O)CC3O (stereo not given) | 217 to 221 |
| O=C1C(O)=C(Br)C(=O)c2ccc(F)cc21 | 183 |
| OCCN1CCN(c2onc3c2CCc2ccccc2-3)CC1 | 137 to 138 |
| Clc1ccc2c(c1)C(c1ccccc1)=NCc1nnc(COC(c3ccccc3)c3ccccc3)n1-2 | 202 to 203 |
| CCOC(=O)c1c(N2CCN(C(=O)c3cccs3)CC2)c2cccnc2n(Cc2cccc(F)c2)c1=O | 105 to 110 |
| COc1nc(C2=NC(=O)C(C)(C(C)C)N2)c(C(=O)O)cc1C (stereo not given) | 151 to 153 |
| CCC1(O)CC(=O)OCc2c1cc1n(c2=O)Cc2c-1nc1ccccc1c2C1CCCCC1 (stereo not given) | > 250 |
| CCOC1CC2CCC3C4CCC(C(C)=O)C4(C)CC(NC(=O)OCC(Cl)(Cl)Cl)C3C2(C)CC1OCC (stereo not given) | 68 to 71 |
| C=C(C)Cc1c(C)c2c(c(C)c1O)CCN2C=O | 132 to 134 |
| CC(C)=NOCc1nc2c(N)nc(C)c(C)c2n1CCCCNS(C)(=O)=O | 157 to 159 |
| OC(CCCCCOCc1ccccc1)c1cccc(OCc2ccc3ccccc3n2)c1 (stereo not given) | 86 to 89 |
| CCN1CCN(c2nccc(Oc3ccc(NC(=O)c4cc(F)cc(N5CCCCC5)c4)c4ccccc34)n2)CC1 | 86 to 87 |
| Cc1cccc(-c2c(C(N)=O)n(C)c(=O)c3ncccc23)c1 | > 310 |
| CC(C)c1ccc(Nc2nc(N)nc3c2-c2ccccc2C3)cc1 | 178 to 180 |
| COC(=O)c1c(OC)c(OC)cc2[nH]c(=O)c(=O)[nH]c12 | > 300 |

| Structure (SMILES) | melting point [°C] |
| --- | --- |
| OCC1OC(n2cnc3c2N=CNCC3O)C(O)C1O (stereo not given) | 178 to 183 |
| Cc1cc(-c2nnc3c4ccccc4c(OCc4cnc5ccccc5n4)nn23)no1 | 243 to 245 |
| O=S(=O)(c1ccc(Br)cc1)N1CCNCC1 | 102 to 104 |
| Cc1cccc(NC(=O)NC2N=C(C3CC3)c3cccc(C)c3N(CC(=O)N3CCCCCCC3)C2=O)c1 (stereo not given) | 178 to 179 |
| OCc1cc2cccc3cc(-c4ccc(O)cc4)c1n23 | 185 to 190 |
| N#Cc1cccnc1N1CCN(CC(=O)Nc2cccc(C(F)(F)F)c2F)CC1 | 118 to 121 |
| Nc1nc2ccccc2c2c1ncn2C1CC(O)C(CO)O1 (stereo not given) | 232 to 237 |
| O=C1NCCc2c1cc1n2CCCC1 | 195 to 197 |
| O=C(N[C@@H](Cc1ccccc1)C(=O)NCCCNC(=O)[C@H](Cc1ccccc1)NC(=O)OCc1ccccc1)OCc1ccccc1 | 226 to 227 |
| CC(C)(C)[Si](C)(C)Oc1ccc2c3c1OC1C(C4OCCO4)CCC4(O)C(C2)N(CC2CC2)CCC314 (stereo not given) | 108 to 109 |
| COc1ccc(C2C(Oc3ccccc3)C(=O)N2c2cc(OC)c(OC)c(OC)c2)cc1O (stereo not given) | 176 to 180 |
| O=C(Nc1ccccc1S(=O)(=O)N1CCCCC1)N[C@@H](Cc1ccc(NC(=O)c2c(Cl)cncc2Cl)cc1)C(=O)O | 223 |
| CCCc1nccn1-c1nc(Cl)nc2nc[nH]c12 | 224 to 225 |
| O=C1Cc2c(cccc2N(CCN(Cc2ccccc2)C(=O)C(F)(F)F)C(=O)C(F)(F)F)N1 | 108 to 111 |
| CC(C)n1nc(-c2sc(C(N)=S)nc2-c2ccccc2)ccc1=O | > 250 |
| CNc1cc(-n2cc(C(=O)O)c(=O)c3cc(F)c(NC)c(C)c32)c(F)cc1F | 220 to 222 |
| CCOC(=O)N1CCN(c2nc(C)nc3c2OCC(=O)N3CC(N)=O)CC1 | 225 to 227 |
| O=C(O)c1cc(C(=O)O)c2cc(Cc3ccc(F)cc3)cnc2c1O | 279 to 282 |
